Data reported in PMC9199881 (Clinical and Translational Science, 2022).
One block for each compound: values may come before it.

How the values were obtained:
healthy subjects [1] = assay: Concentration-QTc; type: in vivo, human; settings: Part B; 400 mg alone
healthy subjects [2] = assay: Safety assessment; type: in vivo, human; settings: Part B; 400 mg alone
[3] = Plasma pharmacokinetics, Part B
healthy volunteers = settings: cited from earlier work
healthy subjects [4] = settings: 100 mg twice daily (b.i.d.); cited from earlier work
[5] = human, in vivo, 400 mg, Mean (SD), 400 mg single dose alone
[6] = human, in vivo, 400 mg, Median (range), 400 mg single dose alone

- Tmax, Median (range) ([3]; 400 mg single dose alone): 2.1 (0.6–10) h
- AUC(0-t) ([3]; human, in vivo, 400 mg, AUC0–last, Mean (SD), 400 mg single dose alone): 22700 ng·h/mL
- AUC(0-inf) ([3]; human, in vivo, 400 mg, AUC0–∞, Mean (SD), 400 mg single dose alone): 27400 ng·h/mL
- Cmax [3, 5]: 2360 ng/mL
- Cmax [3, 6]: 2310 ng/mL
- Cmax ([3]; human, in vivo, 400 mg, range, single moxifloxacin 400 mg dose): 1230 to 4080 ng/mL
- Tmax [3, 5]: 2.2 h
- Tmax [3, 6]: ~2 h
- geometric mean peak concentration ([3]; moxifloxacin 400 mg): 2260 ng/mL
SMILES: COc1c(N2C[C@@H]3CCCN[C@@H]3C2)c(F)cc2c(=O)c(C(=O)O)cn(C3CC3)c12 [Moxifloxacin, moxifloxacin, reference compound]
- predicted ΔΔQTcF at the observed geometric mean Cmax (healthy subjects [1]): 14.7 ms
- Treatment-related TEAE: Abdominal pain, n (%) (healthy subjects [2]): 1 (2.8) n (%)
- Treatment-related TEAE: Diarrhea, n (%) (healthy subjects [2]): 1 (2.8) n (%)
- Treatment-related TEAE: Dizziness, n (%) (healthy subjects [2]): 1 (2.8) n (%)
- Treatment-related TEAE: Dysgeusia, n (%) (healthy subjects [2]): 0 n (%)
- Treatment-related TEAE: Frequent bowel movements, n (%) (healthy subjects [2]): 0 n (%)
- Treatment-related TEAE: Gastrointestinal disorders, n (%) (healthy subjects [2]): 1 (2.8) n (%)
- Treatment-related TEAE: Headache, n (%) (healthy subjects [2]): 0 n (%)
- Treatment-related TEAE: Herpex simplex, n (%) (healthy subjects [2]): 0 n (%)
- Treatment-related TEAE: Infections and infestations, n (%) (healthy subjects [2]): 1 (2.8) n (%)
- Treatment-related TEAE: Lethargy, n (%) (healthy subjects [2]): 1 (2.8) n (%)
- Treatment-related TEAE: Nausea, n (%) (healthy subjects [2]): 1 (2.8) n (%)
- Treatment-related TEAE: Nervous system disorders, n (%) (healthy subjects [2]): 2 (5.6) n (%)
- Treatment-related TEAE: Somnolence, n (%) (healthy subjects [2]): 0 n (%)
- Treatment-related TEAE: Subjects with ≥1 TEAE, n (%) (healthy subjects [2]): 3 (8.3) n (%)
- Treatment-related TEAE: Vomiting, n (%) (healthy subjects [2]): 1 (2.8) n (%)
- incidence of treatment-related TEAEs (healthy subjects [2]): 8.3%
- participants with diarrhea (healthy subjects [2]): 2.8%

SMILES: CC#CC(=O)N1CCC[C@H]1c1nc(-c2ccc(C(=O)Nc3ccccn3)cc2)c2c(N)nccn12 [acalabrutinib]
- prolongation of the QTc interval or clinically relevant ECG effects (healthy volunteers): no prolongation of the QTc interval or clinically relevant ECG effects

SMILES: C=CC(=O)N1CCC(CNc2ncnc(N)c2-c2ccc(Oc3ccccc3)cc2)CC1 [evobrutinib]
- prolongation of the QTc interval or clinically relevant ECG effects (healthy volunteers): no prolongation of the QTc interval or clinically relevant ECG effects

SMILES: CC(C)c1nc(CN(C)C(=O)N[C@H](C(=O)N[C@@H](Cc2ccccc2)C[C@H](O)[C@H](Cc2ccccc2)NC(=O)OCc2cncs2)C(C)C)cs1 [ritonavir]
- effect on QT (healthy subjects [4]): did not alter QT

SMILES: C=CC(=O)N1CCC([C@@H]2CCNc3c(C(N)=O)c(-c4ccc(Oc5ccccc5)cc4)nn32)CC1 [zanubrutinib]
- prolongation of the QTc interval or clinically relevant ECG effects (healthy volunteers): no prolongation of the QTc interval or clinically relevant ECG effects
